Results from US6683162B2, “Targeted alpha particle therapy using actinium-255 conjugates” (Sloan Kettering Institute of Cancer Research, priority 2000, dated 2004).
Like-named read-outs stand apart in the source and are kept apart here.

How the values were obtained:
[1] = Stability of 225Ac complexes of simple chelants: yttrium challenge and C-25 column elution
Protocol: Approximately, 200 μCi of ^225Ac solution was mixed with 10 μl of 50 mM of a ligand solution (such as DOTA) and pH was adjusted to about 6-6.5 with 33 μl of 3 M ammonium acetate. The reaction was kept in a water bath at 37° C. for completion in 2 hours. Reaction yield was monitored using 10 mM NaOH/9% NaCl solvent. Then, 10 μl of 77.5 mM Yttrium chloride solution was added to react with excess chelants for 30 minutes. There are two reasons for adding the 1.5 fold excess Yttrium: 1) if ^225Ac complex is not stable, Yttrium will replace ^225Ac c, and 2) Yttrium will react with chelants and make a final solution at metal excess. The excess metal will be held on a C-25 purification column and the radiometal complex can pass through the column. Therefore, the purified solution should contain a 1:1 metal to ligand ratio for the stability studies.
Each reaction solution was purified through a 1 ml C-25 column using a 5 ml of normal saline as eluting buffer. The first 2.5 ml elution was collected for the stability study. The activity in the eluate and the activity retaining on the column were measured using a dose calibrator 20 hours after purification.

[2] = Long-term in vitro stability of 225Ac-DOTA complex in 25% human serum (ITLC); type: in vitro ADME; settings: 37° C., after 1 month
Protocol: 100% human serum (Sigma Chemical Co., St. Louis, Mo.), 100% mouse serum and 25% human serum albumin (Swiss Red Cross, Bern, Switzerland) was used to determine stability of the ^225 Ac complexes and conjugates. Aliquots in serum are mixed with diethylenetriaminepentaacetic acid (DPTA) (Aldrich Chemical Co., Milwaukee, Wis.). ITLC was utilized with either a 10 mM EDTA or 10 mM NaOH/9% NaCl solvent system and ITLC SG strips (Gelman Science Inc., Ann Arbor, Mich.) to assess the complexation and conjugation efficiency of the chelants. The ITLC strips were analyzed by gas ionization detection with an Ambis 4000 (Ambis, San Diego, Calif.).
Long-term in vitro stability of the ^225Ac-DOTA complex was tested by mixing 100 μl of the purified sample with 900 μl of 25% human serum. The ^225Ac-DOTA and solution was incubated at 37° C. and sampled periodically over the course of 30 days. The samples were analyzed by ITLC.

[3] = Liver accumulation of free 225Ac (acetate) injected into a mouse; type: in vivo
Protocol: In contrast to these two [225Ac]DOTA-IgG constructs, free ^225Ac (acetate) injected into a mouse rapidly accumulates in the liver: 40%, 40%, 65% at 24 h, 48 h, and 120 h, respectively.

[4] = test system: human HL60 leukemia cells; settings: Bi-213 construct, S.A. 8.4 Ci/g; cited from earlier work
leukemia cells = settings: cumulative doses of up to 3.7 GBq (100 mCi); cited from earlier work
[5] = after yttrium addition, C-25 column

O=C(O)CN(CCN(CC(=O)O)CC(=O)O)CCN(CC(=O)O)CC(=O)O (225Ac complex, metal not drawn) [DTPA]
stability of 225Ac complex (all 225Ac retained on the column) [1]: unstable

O=C([O-])CN1CCN(CC(=O)[O-])CCN(CC(=O)[O-])CCN(CC(=O)[O-])CC1.[225Ac+3] [225Ac-DOTA]
percentage of 225Ac activity eluted from the column ([1]; after […] excess yttrium, 1 ml C-25 column, normal saline, activity measured 20 hours after purification): 98.7% | metal remains complexed [2]: 85%

O=C(O)CCN1CCN(CCC(=O)O)CCN(CCC(=O)O)CCN(CCC(=O)O)CC1 [DOTPA]
stability of 225Ac complex (all 225Ac retained on the column) [1, 5]: unstable

O=C(O)CN1CCCN(CC(=O)O)CCN(CC(=O)O)CCCN(CC(=O)O)CC1 [TETA]
stability of 225Ac complex (all 225Ac retained on the column) [1, 5]: unstable

O=C(O)CCN1CCCN(CCC(=O)O)CCN(CCC(=O)O)CCCN(CCC(=O)O)CC1 [TETPA]
stability of 225Ac complex (all 225Ac retained on the column) [1, 5]: unstable

CC(=O)[O-].CC(=O)[O-].CC(=O)[O-].[225Ac+3] [free 225Ac (acetate)]
accumulation in the liver ([3]; 24 h): 40% | accumulation in the liver ([3]; 48 h): 40% | accumulation in the liver ([3]; 120 h): 65%

[Bi-213]HuM195: 213Bi alpha-particle emitting HuM195 antibody construct, comparator
LD50 [4]: 200,000 pCi/mL | tumorocidal activity for leukemia cells (leukemia cells): major tumorocidal activity
